ChEMBL document CHEMBL3137667, “[Drug-induced liver injury; fourteenth updated edition of the bibliographic database of liver injuries and related drugs]” (Gastroenterol Clin Biol, 2004)

Key:
[1] = human
[2] = human; remark: listed apart in the source
[3] = Highest frequency of moderate liver toxicity observed during clinical trials, expressed as a percentage. [column '% BIOL' in source]; conditions: human
[4] = human, serum, 4383 h
[5] = Highest frequency of acute liver toxicity observed during clinical trials, expressed as a percentage. [column '% AIGUE' in source]; conditions: human
[6] = human; remark: listed apart in the source
[7] = human, serum
[8] = human; remark: listed apart in the source
[9] = human; remark: listed apart in the source
[10] = Times to onset, minimal and maximal, observed in the indexed observations. [column 'DELAI' in source]; conditions: human
[11] = human; remark: listed apart in the source
[12] = Proposed mechanism(s) of liver damage. [column 'MEC' in source]; conditions: human
[13] = human; remark: listed apart in the source
[14] = human; remark: listed apart in the source
[15] = human, serum; remark: listed apart in the source
[16] = human; remark: listed apart in the source
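For Hepatotoxicity (association with vascular disease) in this document: count of indexed literature references reporting vascular liver injury in humans, e.g. peliosis hepatitis, hepatic veno-occlusive disease or Budd-Chiari syndrome.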
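For Hepatotoxicity (benign tumour) in this document: value is a count of indexed literature references citing a benign tumour confirmed by histopathology.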
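For Hepatotoxicity (choleostasis) in this document: human cholestatic liver injury, shown by histopathology or by peak ALT or AST elevation over alkaline phosphatase ratio below 2, value counts indexed literature reports.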
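For Hepatotoxicity (chronic liver disease) in this document: chronic liver injury confirmed by histopathology or persistently raised serum aminotransferase activity beyond 6 months, value given as the count of indexed literature references.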
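For Hepatotoxicity (cirrhosis) in this document: value is a count of indexed literature references reporting cirrhosis confirmed by histopathology.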
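For Hepatotoxicity (cytolytic) in this document: human cytolytic liver injury, shown by histopathology or by a ratio above 5 of peak ALT or AST elevation to alkaline phosphatase elevation, value counts indexed references.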
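For Hepatotoxicity (granulomatous hepatitis) in this document: value is a count of indexed literature references reporting granulomatous liver disease confirmed by histopathology.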
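For Hepatotoxicity (malignant tumour) in this document: malignant tumour confirmed by histopathology, value gives the count of indexed literature references reporting it.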
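For Hepatotoxicity (severe hepatitis) in this document: human clinical data: severe hepatitis, meaning potentially life-threatening liver failure or clinically observed cases, the value counts how many indexed literature references report it.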
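For Hepatotoxicity (steatosis) in this document: steatosis confirmed by histopathology, value is the count of indexed references.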

Compound	Hepatotoxicity (granulomatous hepatitis) [1]	Hepatotoxicity (cytolytic) [2]	Hepatotoxicity (moderate) [3] [%]	Hepatotoxicity (chronic liver disease) [4]	Hepatotoxicity (acute) [5] [%]	Hepatotoxicity (cirrhosis) [6]	Hepatotoxicity (moderate) [7]	Hepatotoxicity (choleostasis) [8]	Hepatotoxicity (benign tumour) [9]	Hepatotoxicity (time to onset) [10]	Hepatotoxicity (association with vascular disease) [11]	Hepatotoxicity (mechanism) [12]	Hepatotoxicity (malignant tumour) [13]	Hepatotoxicity (severe hepatitis) [14]	Hepatotoxicity (acute) [15]	Hepatotoxicity (steatosis) [16]	Hepatotoxicity (moderate) ([3]; Liver) [%]	Hepatotoxicity (acute) ([5]; Liver) [%]	Hepatotoxicity (severe hepatitis) ([14]; Liver)	further results
NCC1(CC(=O)O)CCCCC1 [GABAPENTIN]	0	1	2.4	0	2.4	0	2	3	0	9 days - 4 months	0	Allergic	0	0	5	1				
CC(=O)c1ccc(S(=O)(=O)NC(=O)NC2CCCCC2)cc1 [ACETOHEXAMIDE]	0	2	0	0	0	1	0	0	0	3 weeks - 17 months	0	Dose-dependant	0	0	6	0				
CN(C)[C@@H]1C(O)=C(C(N)=O)C(=O)[C@@]2(O)C(O)=C3C(=O)c4c(O)ccc(Cl)c4[C@@H](O)[C@H]3C[C@@H]12 [DEMECLOCYCLINE]	0	1	0	0	0	0	0	0	0	2 days - 2 months	0	Dose-dependant	0	2	1	1				
CNCCCC12CCC(c3ccccc31)c1ccccc12 [MAPROTILINE]				0		0	5		0	2 days - 4 years	0		0		8	0	25	0	0	Hepatotoxicity (granulomatous hepatitis) ([1]; Liver): 0; Hepatotoxicity (cytolytic) ([2]; Liver): 7; Hepatotoxicity (choleostasis) ([8]; Liver): 4; Hepatotoxicity (mechanism) ([12]; Liver): Dose-dependant
COc1ccc(C(CN(C)C)C2(O)CCCCC2)cc1 (stereo not given) [VENLAFAXINE]	0	3	2.8	0	0	0	3	1	0	12 days - 6 months	0	Allergic	0	0	4	0				
CNC(=O)c1c(I)c(C(=O)NCC(=O)Nc2c(I)c(C(=O)O)c(I)c(C(=O)NCCO)c2I)c(I)c(N(C)C(C)=O)c1I [IOXAGLIC ACID]	0	1	0	0	0	0	0	0	0	1 days	0	Allergic	0	0	1	0				
CO[C@H]1/C=C/O[C@@]2(C)Oc3c(C)c(O)c4c(c3C2=O)C2=NC3(CCN(CC(C)C)CC3)NC2=C(NC(=O)/C(C)=C\C=C\[C@H](C)[C@H](O)[C@@H](C)[C@@H](O)[C@@H](C)[C@H](OC(C)=O)[C@@H]1C)C4=O [RIFABUTIN]				0		0	6		0	2 weeks - 11 weeks	0		0		2	0	7.1	0	1	Hepatotoxicity (granulomatous hepatitis) ([1]; Liver): 0; Hepatotoxicity (cytolytic) ([2]; Liver): 1; Hepatotoxicity (choleostasis) ([8]; Liver): 0; Hepatotoxicity (mechanism) ([12]; Liver): Dose-dependant
O=C1c2c(O)ccc(O)c2C(=O)c2c(NCCNCCO)ccc(NCCNCCO)c21 [MITOXANTRONE]	0	0	80	0	42.8	0	21	0	0	4 days - 24 days	0	Dose-dependant	0	2	4	0				
O=C1CC[C@@]2(O)[C@H]3Cc4ccc(O)c5c4[C@@]2(CCN3CC2CC2)[C@H]1O5 [NALTREXONE]	0	3		0		0	9	0	0	1 month - 2 months	0	Dose-dependant	0		3	0	20	0	0	
CCC(C)n1ncn(-c2ccc(N3CCN(c4ccc(OC[C@H]5CO[C@](Cn6cncn6)(c6ccc(F)cc6F)O5)cc4)CC3)cc2)c1=O (stereo not given in full) [SAPERCONAZOLE]	0	0	0	0	0	0	1	0	0	8 weeks	0	Dose-dependant	0	0	0	0				
